Measured values taken from PubChem BioAssay (NCI).
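A five-concentration, 48-hour dose response in 96-well plates underlies each endpoint, interpolated linearly between surrounding concentrations. The concentration for 50% growth inhibition is given as GI50. The concentration for full growth arrest is given as TGI.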

Key:
Assay in all cases: growth of human tumour cells (NCI), 48 h
SK-MEL-5 melanoma = test system: SK-MEL-5 melanoma
UACC-257 melanoma = test system: UACC-257 melanoma
NCI/ADR-RES ovarian = test system: NCI/ADR-RES ovarian
UACC-62 melanoma = test system: UACC-62 melanoma
SNB-75 CNS = test system: SNB-75 CNS
SK-MEL-2 melanoma = test system: SK-MEL-2 melanoma
EKVX NSCLC = test system: EKVX NSCLC
HL-60(TB) leukemia = test system: HL-60(TB) leukemia

Structure (SMILES): OCC1OC(N2CCN(C3OC(CO)C(O)C(O)C3O)CC2)C(O)C(O)C1O (stereo unspecified)
- TGI (SK-MEL-5 melanoma): > 100 µM
- TGI (UACC-257 melanoma): > 100 µM
- TGI (NCI/ADR-RES ovarian): > 100 µM
- TGI (UACC-62 melanoma): > 100 µM
- TGI (SNB-75 CNS): > 100 µM
- TGI (SK-MEL-2 melanoma): > 100 µM
- TGI (EKVX NSCLC): > 100 µM

Structure (SMILES): COc1ccc(C2CC(=O)Nc3c2c(C)nn3-c2nc3ccccc3[nH]2)cc1OC (stereo unspecified)
- GI50 (SK-MEL-5 melanoma): 2.42 µM
- TGI (SK-MEL-5 melanoma): 6.17 µM
- GI50 (UACC-257 melanoma): 6.46 µM
- TGI (UACC-257 melanoma): 55.4 µM
- GI50 (HL-60(TB) leukemia): 3.29 µM
- TGI (HL-60(TB) leukemia): 12.6 µM
- GI50 (NCI/ADR-RES ovarian): 12 µM
- TGI (NCI/ADR-RES ovarian): > 100 µM
- GI50 (UACC-62 melanoma): 3.15 µM
- TGI (UACC-62 melanoma): 12.8 µM
- GI50 (SNB-75 CNS): 3.46 µM
- TGI (SNB-75 CNS): > 56.1 µM
- GI50 (SK-MEL-2 melanoma): 4.85 µM
- TGI (SK-MEL-2 melanoma): 21.9 µM

Structure (SMILES): O=C(C#Cc1ccccc1)N1CCCCC1
- TGI (SK-MEL-5 melanoma): > 100 µM
- TGI (UACC-257 melanoma): > 100 µM
- TGI (HL-60(TB) leukemia): > 100 µM
- TGI (UACC-62 melanoma): > 100 µM
- TGI (SNB-75 CNS): > 100 µM
- TGI (SK-MEL-2 melanoma): > 100 µM
- TGI (EKVX NSCLC): > 100 µM

Structure (SMILES): CCCCCCCN(CCCCCCC)C(=N)c1ccc(OC)c2ccccc12
- GI50 (SK-MEL-5 melanoma): 1.58 µM
- TGI (SK-MEL-5 melanoma): 3.01 µM
- GI50 (NCI/ADR-RES ovarian): 1.46 µM
- TGI (NCI/ADR-RES ovarian): 3.05 µM
- GI50 (UACC-62 melanoma): 1.34 µM
- TGI (UACC-62 melanoma): 2.77 µM
- GI50 (SNB-75 CNS): 1.3 µM
- TGI (SNB-75 CNS): 2.6 µM
- GI50 (SK-MEL-2 melanoma): 1.81 µM
- TGI (SK-MEL-2 melanoma): 3.4 µM
- GI50 (EKVX NSCLC): 1.37 µM
- TGI (EKVX NSCLC): 2.85 µM

Structure (SMILES): COc1cccc(/C=C/C(=O)c2cc3c(N)c(C(=O)Nc4ccccc4)sc3nc2C)c1
- GI50 (SK-MEL-5 melanoma): 1.48 µM
- TGI (SK-MEL-5 melanoma): 5.53 µM
- GI50 (UACC-257 melanoma): 1.9 µM
- TGI (UACC-257 melanoma): 8.97 µM
- GI50 (HL-60(TB) leukemia): 1.02 µM
- TGI (HL-60(TB) leukemia): 2.72 µM
- GI50 (UACC-62 melanoma): 0.943 µM
- TGI (UACC-62 melanoma): 2.19 µM
- GI50 (SNB-75 CNS): 0.889 µM
- TGI (SNB-75 CNS): > 50 µM
- GI50 (SK-MEL-2 melanoma): 1.75 µM
- TGI (SK-MEL-2 melanoma): 8.63 µM
- GI50 (EKVX NSCLC): 5.8 µM
- TGI (EKVX NSCLC): 13.1 µM

Structure (SMILES): Nc1nc(N)c2c(n1)NC(c1ccc(Cl)cc1)C1CCc3ccccc3C1=N2 (stereo unspecified)
- GI50 (SK-MEL-5 melanoma): 0.497 µM
- TGI (SK-MEL-5 melanoma): 2.02 µM
- GI50 (UACC-257 melanoma): 7.07 µM
- TGI (UACC-257 melanoma): 19.6 µM
- GI50 (NCI/ADR-RES ovarian): 5.53 µM
- TGI (NCI/ADR-RES ovarian): 18.2 µM
- GI50 (UACC-62 melanoma): 3.66 µM
- TGI (UACC-62 melanoma): 18.3 µM
- GI50 (SNB-75 CNS): 13 µM
- TGI (SNB-75 CNS): 26.8 µM
- GI50 (SK-MEL-2 melanoma): 10.6 µM
- TGI (SK-MEL-2 melanoma): 24.6 µM
- GI50 (EKVX NSCLC): 3.62 µM
- TGI (EKVX NSCLC): 21 µM

Structure (SMILES): Nc1cc2c3ccccc3ccc2c2ccccc12
- GI50 (SK-MEL-5 melanoma): 16.7 µM
- TGI (SK-MEL-5 melanoma): > 100 µM
- GI50 (UACC-257 melanoma): > 100 µM
- TGI (UACC-257 melanoma): > 100 µM
- GI50 (HL-60(TB) leukemia): > 68.6 µM
- TGI (HL-60(TB) leukemia): > 100 µM
- GI50 (NCI/ADR-RES ovarian): > 93.7 µM
- TGI (NCI/ADR-RES ovarian): > 100 µM
- GI50 (UACC-62 melanoma): > 100 µM
- TGI (UACC-62 melanoma): > 100 µM
- GI50 (SNB-75 CNS): > 30.5 µM
- TGI (SNB-75 CNS): > 100 µM
- GI50 (SK-MEL-2 melanoma): > 100 µM
- TGI (SK-MEL-2 melanoma): > 100 µM

Structure (SMILES): O=C(Nc1cccc(Cl)c1)Nc1cc(C(F)(F)F)ccc1Cl
- GI50 (SK-MEL-5 melanoma): 1.92 µM
- TGI (SK-MEL-5 melanoma): 3.51 µM
- GI50 (UACC-257 melanoma): 2.66 µM
- TGI (UACC-257 melanoma): 5.84 µM
- GI50 (HL-60(TB) leukemia): 3.02 µM
- TGI (HL-60(TB) leukemia): 31.3 µM
- GI50 (NCI/ADR-RES ovarian): 2.64 µM
- TGI (NCI/ADR-RES ovarian): 7.12 µM
- GI50 (UACC-62 melanoma): 2.8 µM
- TGI (UACC-62 melanoma): 13.7 µM
- GI50 (SNB-75 CNS): 2.29 µM
- TGI (SNB-75 CNS): 6.48 µM
- GI50 (SK-MEL-2 melanoma): 2.24 µM
- TGI (SK-MEL-2 melanoma): 5.4 µM

Structure (SMILES): Fc1ccc(Nc2ccnc(N3CCN(c4ccnc5cc(Cl)ccc45)CC3)n2)cc1
- GI50 (SK-MEL-5 melanoma): 1.53 µM
- TGI (SK-MEL-5 melanoma): 2.96 µM
- GI50 (UACC-257 melanoma): 1.95 µM
- TGI (UACC-257 melanoma): 4.27 µM
- GI50 (HL-60(TB) leukemia): 2.59 µM
- TGI (HL-60(TB) leukemia): 6.44 µM
- GI50 (NCI/ADR-RES ovarian): 2.24 µM
- TGI (NCI/ADR-RES ovarian): 6.41 µM
- GI50 (UACC-62 melanoma): 1.73 µM
- TGI (UACC-62 melanoma): 4.53 µM
- GI50 (SNB-75 CNS): 2.43 µM
- TGI (SNB-75 CNS): > 100 µM
- GI50 (SK-MEL-2 melanoma): 2.16 µM
- TGI (SK-MEL-2 melanoma): 4.07 µM

Structure (SMILES): COc1cc(OC)c(OC)cc1/C=C/c1ccc2ccccc2n1
- TGI (SK-MEL-5 melanoma): > 10 µM
- TGI (UACC-257 melanoma): > 10 µM
- TGI (HL-60(TB) leukemia): > 10 µM
- TGI (NCI/ADR-RES ovarian): > 10 µM
- TGI (UACC-62 melanoma): > 10 µM
- TGI (SNB-75 CNS): > 10 µM

Structure (SMILES): CCN(Cc1c(F)cccc1C(F)(F)F)c1ccc(CO)c(Cl)c1
- GI50 (SK-MEL-5 melanoma): 7.81 µM
- TGI (SK-MEL-5 melanoma): 23.2 µM
- GI50 (UACC-257 melanoma): < 0.0407 µM
- TGI (UACC-257 melanoma): 0.187 µM
- GI50 (HL-60(TB) leukemia): 15.9 µM
- TGI (HL-60(TB) leukemia): 36.9 µM
- GI50 (NCI/ADR-RES ovarian): 14.7 µM
- TGI (NCI/ADR-RES ovarian): 32.1 µM
- TGI (UACC-62 melanoma): 12.6 µM
- GI50 (SNB-75 CNS): 12.5 µM
- TGI (SNB-75 CNS): 26.4 µM
- GI50 (SK-MEL-2 melanoma): 3.33 µM
- TGI (SK-MEL-2 melanoma): 24.5 µM

Structure (SMILES): O=C(COc1ccc(Cl)cc1Cl)NNc1ccc([N+](=O)[O-])cc1
- GI50 (SK-MEL-5 melanoma): > 100 µM
- TGI (SK-MEL-5 melanoma): > 100 µM
- GI50 (UACC-257 melanoma): 99.6 µM
- TGI (UACC-257 melanoma): > 100 µM
- GI50 (HL-60(TB) leukemia): > 100 µM
- TGI (HL-60(TB) leukemia): > 100 µM
- GI50 (NCI/ADR-RES ovarian): 84 µM
- TGI (NCI/ADR-RES ovarian): > 100 µM
- GI50 (UACC-62 melanoma): 27.7 µM
- TGI (UACC-62 melanoma): > 100 µM
- GI50 (SNB-75 CNS): 15.3 µM
- TGI (SNB-75 CNS): 33.7 µM
- GI50 (SK-MEL-2 melanoma): 22 µM
- TGI (SK-MEL-2 melanoma): 39.7 µM

Structure (SMILES): O=C(Nc1c(Cl)cccc1Cl)Oc1cccc2cccnc12
- GI50 (SK-MEL-5 melanoma): 3.39 µM
- TGI (SK-MEL-5 melanoma): 12.3 µM
- GI50 (UACC-257 melanoma): 2.74 µM
- TGI (UACC-257 melanoma): 9.72 µM
- GI50 (HL-60(TB) leukemia): 3.75 µM
- TGI (HL-60(TB) leukemia): 20.6 µM
- GI50 (NCI/ADR-RES ovarian): 2.73 µM
- TGI (NCI/ADR-RES ovarian): 27.9 µM
- GI50 (UACC-62 melanoma): 3.04 µM
- TGI (UACC-62 melanoma): 10 µM
- GI50 (SNB-75 CNS): 13.5 µM
- TGI (SNB-75 CNS): 53.6 µM

Structure (SMILES): COc1ccc(N2CCN(c3nc(-c4ccccn4)nc4sc5c(c34)CCCCCC5)CC2)cc1
- GI50 (SK-MEL-5 melanoma): 2.85 µM
- TGI (SK-MEL-5 melanoma): > 100 µM
- GI50 (UACC-257 melanoma): 7.22 µM
- TGI (UACC-257 melanoma): > 100 µM
- GI50 (HL-60(TB) leukemia): 4.05 µM
- TGI (HL-60(TB) leukemia): 34 µM
- GI50 (NCI/ADR-RES ovarian): 4.77 µM
- TGI (NCI/ADR-RES ovarian): > 100 µM
- GI50 (UACC-62 melanoma): 6.86 µM
- TGI (UACC-62 melanoma): > 100 µM
- GI50 (SNB-75 CNS): 26.1 µM
- TGI (SNB-75 CNS): > 100 µM
- GI50 (SK-MEL-2 melanoma): 18.3 µM
- TGI (SK-MEL-2 melanoma): > 100 µM

Structure (SMILES): COc1ccc(C2[C@@H](Cl)C(=O)N2c2ccc(OC)cc2)cc1 (stereo partly specified)
- TGI (SK-MEL-5 melanoma): > 100 µM
- TGI (UACC-257 melanoma): > 100 µM
- TGI (HL-60(TB) leukemia): > 100 µM
- TGI (UACC-62 melanoma): > 100 µM
- TGI (SNB-75 CNS): 64.1 µM
- TGI (SK-MEL-2 melanoma): > 100 µM
- TGI (EKVX NSCLC): > 100 µM
